Measurements as given in publication PMC11403612, “Preparation and Preclinical Characterization of a Simple Ester for Dual Exogenous Supply of Lactate and Beta-hydroxybutyrate” (Journal of Agricultural and Food Chemistry, 2024).

Test: Microsomal stability of LaKe, human
Format: in vitro ADME
Protocol: The in vitro stability of LaKe was evaluated following incubation in simulated gastric fluid (SGF), simulated intestinal fluid (SIF), fresh and frozen plasma (rats and humans, respectively), and the presence of hepatocytes (rats and humans) and liver microsomes (rats and humans). At the chosen time points, the mixtures were analyzed by LC-MS/MS to quantify the remaining LaKe and all assays included at least one control compound with known pharmacokinetic properties.
Hepatocyte stability of LaKe
Cells: Rat hepatocytes (BioreclamationIVT, M0005); Human hepatocytes (BioreclamationIVT, X008001) Thawing Medium: Williams’ Medium E containing 5% fetal bovine serum and 30% Percoll solution and other […]
Incubation Medium: Williams’ Medium E (no phenol red) containing 2 mM L-Glutamine and 25 mM HEPES.
Stop Solution: Acetonitrile containing 200 ng/mL tolbutamide and labetalol as internal standards.
Dilution Solution: Ultra-pure water.
Preparation of Quenching Plate: Transfer 125 μL of stop solution (acetonitrile containing 200 ng/mL tolbutamide and 200 ng/mL labetalol as internal standards) in a set of pre-labeled 96-well plates.
Cryopreserved cells were thawed, isolated and suspended in Incubation Medium, then diluted with pre-warmed Incubation Medium to 0.5 × 10^6 cells/mL. 198 μL of pre-warmed cell suspensions were added in 96-well plates. […]

## CC(O)CCOC(=O)C(C)O (centres unmarked) [LaKe, 3-hydroxybutyl 2-hydroxypropanoate]
Human liver microsomes, absence of NADPH, after 60 min
  LaKe remaining: 82%
Presence of NADPH
  turnover in liver microsomes: underwent turnover
